For this data set, the system named is McpC ligand-binding domain (Salmonella Typhimurium SL1344). Description: protein melting temperature (Tm) in presence of compound (degrees C); higher = more thermal stabilisation (possible ligand binding). The note with it: compound stock concentration: 10-20 mM, 2 uL in 10 uL reaction.

Molecules are shown by their SMILES.

Our source for the protein melting temperature values is the supplement of paper PMC7806825.

With `OC[C@H]1O[C@H](OC[C@H]2O[C@H](O[C@H]3[C@H](O)[C@@H](O)[C@@H](O)O[C@@H]3CO)[C@H](O)[C@@H](O)[C@@H]2O[C@H]2O[C@H](CO)[C@@H](O)[C@H](O)[C@H]2O)[C@H](O)[C@@H](O)[C@@H]1O` [Glycogen], for the setting “Biolog plate: PM02A”, the protein melting temperature was determined as 44.8.

In the case of `Nc1[nH]cnc2ncnc1-2` [Adenine], the protein melting temperature is, setting by setting: (Biolog plate: PM03B) 45.2; (Biolog plate: PM05) 44.1.

`COC(=O)[C@@H](C)O` [D-Lactic acid Methyl Ester]: the protein melting temperature (Biolog plate: PM02A) worked out at 44.4.

For the compound `NCCC[C@H](N)C(=O)O` [L-Ornithine], the protein melting temperature turned out to be 44.4 (Biolog plate: PM02A), 44.4 (Biolog plate: PM03B) and 44.7 (Biolog plate: PM05).

For the compound `OC[C@H]1O[C@@H]2O[C@H]3[C@H](O)[C@@H](O)[C@@H](O[C@H]4[C@H](O)[C@@H](O)[C@@H](O[C@H]5[C@H](O)[C@@H](O)[C@@H](O[C@H]6[C@H](O)[C@@H](O)[C@@H](O[C@H]7[C@H](O)[C@@H](O)[C@@H](O[C@H]8[C@H](O)[C@@H](O)[C@@H](O[C@H]1[C@H](O)[C@H]2O)O[C@@H]8CO)O[C@@H]7CO)O[C@@H]6CO)O[C@@H]5CO)O[C@@H]4CO)O[C@@H]3CO` [b-Cyclodextrin], where the note is “Biolog plate: PM02A”, the protein melting temperature is 45.4.

`NCC(=O)N[C@@H](CCC(=O)O)C(=O)O` [Gly-Glu]: the protein melting temperature was found to be 44.9 (Biolog plate: PM01) and 45.1 (Biolog plate: PM03B).

Regarding `O=C(CO)[C@@H](O)[C@H](O)[C@H](O)CO` [D-Fructose], the protein melting temperature (Biolog plate: PM01) amounted to 44.3.

`N[C@@H](Cc1ccc(OP(=O)(O)O)cc1)C(=O)O` [O-Phospho-L-Tyrosine]: the protein melting temperature (Biolog plate: PM04A) was determined as 43.7.

For the compound `NCC(O)c1ccc(O)cc1` (racemic) [D,L-Octopamine], where the note is “Biolog plate: PM02A”, the protein melting temperature stood at 43.9.

For the compound `O=C(O)[C@H](O)[C@@H](O)[C@H](O)[C@H](O)CO[C@H]1O[C@H](CO)[C@H](O)[C@H](O)[C@H]1O` [Melibionic acid], the protein melting temperature (Biolog plate: PM02A) was 44.7.

On to `Cc1cn([C@H]2C[C@H](O)[C@@H](COP(=O)(O)O)O2)c(=O)[nH]c1=O` [Thymidine 5`-Monophosphate], for which, under “Biolog plate: PM04A”, the protein melting temperature amounted to 43.7.

With `O=c1cc[nH]c(=O)[nH]1` [Uracil], the protein melting temperature reads like this: (Biolog plate: PM03B) 45.7; (Biolog plate: PM05) 42.7.

With `O=c1ccn([C@H]2C[C@H](O)[C@@H](CO)O2)c(=O)[nH]1` [2`-Deoxyuridine], where the note is “Biolog plate: PM05”, the protein melting temperature was found to be 44.4.

For the compound `O=P(O)(O)OC(CO)CO` [b-Glycerol Phosphate], the protein melting temperature (Biolog plate: PM04A) was determined as 44.3.

In the case of `Nc1ncnc2c1ncn2[C@@H]1O[C@H](CO)[C@@H](OP(=O)(O)O)[C@H]1O` [Adenosine 3`-Monophosphate], the protein melting temperature (Biolog plate: PM04A) worked out at 44.2.

With `CN(CC(=O)O)C(=N)NP(=O)(O)O` [Phosphocreatine], the protein melting temperature (Biolog plate: PM04A) came out at 44.3.

Regarding `Nc1ncnc2c1ncn2[C@@H]1O[C@H](CO)[C@@H](O)[C@H]1OP(=O)(O)O` [Adenosine 2`-Monophosphate], the protein melting temperature (Biolog plate: PM04A) was 43.8.

With `O=P(O)(O)OC[C@H](O)CO` (racemic) [DL-a-Glycerol Phosphate], the protein melting temperature reads like this: (Biolog plate: PM01) 44.6; (Biolog plate: PM04A) 44.4.

Regarding `O=C(CO)[C@@H](O)[C@H](O)[C@H](O)CO[C@H]1O[C@H](CO)[C@@H](O)[C@H](O)[C@H]1O` [Palatinose], for the setting “Biolog plate: PM02A”, the protein melting temperature stood at 44.

`O=C(O)C[C@@H](O)C(=O)O` [D-Malic acid]: the protein melting temperature (Biolog plate: PM01) was found to be 43.6.

Regarding `C[C@H](O)[C@@H](N)C(=O)O` [D-Threonine], the protein melting temperature (Biolog plate: PM01) amounted to 44.

For the compound `N[C@@H](CSCSC[C@H](N)C(=O)O)C(=O)O` [L-Djenkolic acid], the protein melting temperature (Biolog plate: PM04A) turned out to be 44.6.

`O=C(O)Cc1cccc(O)c1` [m-Hydroxyphenyl Acetic acid]: for the setting “Biolog plate: PM01”, the protein melting temperature was found to be 44.9.

For the compound `NCCOP(=O)(O)O` [O-Phosphoryl-Ethanolamine], for the setting “Biolog plate: PM04A”, the protein melting temperature was 43.9.

For `O=PO` [Hypophosphite], the protein melting temperature (Biolog plate: PM04A) came to 44.1.

Consider `C[N+](C)(C)CC(O)CC(=O)[O-]` (racemic) [D,L-Carnitine], for which the protein melting temperature (Biolog plate: PM02A) was 44.4.

With `CC(=O)N[C@H]1C(O)O[C@H](CO)[C@H](O)[C@@H]1O` (stereo partly drawn) [N-Acetyl-D-Galactosamine], the protein melting temperature (Biolog plate: PM02A) stood at 44.6 and the protein melting temperature (Biolog plate: PM03B) is 44.6.

For `NC(=O)NC(N)=O` [Biuret], the protein melting temperature (Biolog plate: PM03B) was determined as 44.2.

For the compound `N[C@@H](Cc1ccccc1)C(=O)O` [L-Phenylalanine], the protein melting temperature is, setting by setting: (Biolog plate: PM02A) 44.5; (Biolog plate: PM03B) 44.8; (Biolog plate: PM05) 43.8.

For the compound `CC(C)[C@@H](N)C(=O)O` [D-Valine], the protein melting temperature (Biolog plate: PM03B) was 44.7.

Take `OC[C@H]1O[C@H](OC[C@H]2O[C@H](O[C@]3(CO)O[C@H](CO)[C@@H](O)[C@@H]3O)[C@H](O)[C@@H](O)[C@@H]2O)[C@H](O)[C@@H](O)[C@H]1O` [D-Raffinose]: under “Biolog plate: PM02A”, the protein melting temperature worked out at 44.4.

As for `C[S+]([O-])CC[C@H](N)C(=O)O` (stereo partly drawn) [L-Methionine Sulfoxide], the protein melting temperature (Biolog plate: PM04A) is 43.6.

With `N[C@H]1CCOC1=O` [L-Homoserine Lactone], the protein melting temperature (Biolog plate: PM05) stood at 44.5.

Consider `OCC1(O)OC[C@@H](O)[C@@H](O)[C@H]1O` (stereo partly drawn) [D-Psicose], for which the protein melting temperature (Biolog plate: PM01) worked out at 45.

For `N[C@H](COP(=O)(O)O)C(=O)O` [O-Phospho-D-Serine], the protein melting temperature (Biolog plate: PM04A) came to 43.9.

For `Nc1ncnc2c1ncn2[C@@H]1O[C@@H]2COP(=O)(O)O[C@H]2[C@H]1O` [Adenosine 3`,5`-Cyclic Monophosphate], the protein melting temperature amounted to 43.9 (Biolog plate: PM04A) and 44.4 (Biolog plate: PM05).

Consider `COC(=O)CCC(=O)O` [Mono-Methylsuccinate], for which the protein melting temperature (Biolog plate: PM01) amounted to 45.

`CC(=O)N(O)CCCCCNC(=O)CCC(=O)N(O)CCCCCNC(=O)CCC(=O)N(O)CCCCCN` [Deferoxamine]: the protein melting temperature (Biolog plate: PM05) is 44.4.

Regarding `OC[C@@H](O)C(O)[C@H](O)CO` [D-Arabitol], the protein melting temperature (Biolog plate: PM02A) came out at 44.4.

Take `NC=O` [Formamide]: under “Biolog plate: PM03B”, the protein melting temperature turned out to be 45.6.

For `O=C(O)[C@H]1O[C@@H](O)[C@H](O)[C@@H](O)[C@H]1O` [Pectin], the protein melting temperature (Biolog plate: PM02A) amounted to 45.

Turning to `NCCc1ccc(O)cc1` [Tyramine], the protein melting temperature (Biolog plate: PM01) was 43.9 and the protein melting temperature (Biolog plate: PM03B) was found to be 44.8.

Regarding `CO[C@@H]1O[C@H](CO)[C@@H](O)[C@H](O)[C@H]1O` [b-Methyl-D-Glucoside], the protein melting temperature (Biolog plate: PM01) came out at 44.7.

For `OC[C@@H](O)[C@@H](O[C@H]1O[C@H](CO)[C@@H](O)[C@H](O)[C@H]1O)[C@H](O)[C@@H](O)CO` [Maltitol], for the setting “Biolog plate: PM02A”, the protein melting temperature was found to be 44.5.

Take `C[C@H](N)C(=O)N[C@@H](CC(=O)O)C(=O)O` [Ala-Asp]: the protein melting temperature (Biolog plate: PM03B) turned out to be 45.

As to `O=C(O)Cc1ccc(O)cc1` [p-Hydroxyphenyl Acetic acid], the protein melting temperature (Biolog plate: PM01) came out at 45.3.

For `O=NO` [Nitrite], where the note is “Biolog plate: PM03B”, the protein melting temperature came to 46.

Turning to `O=C(O)CCCO` [g-Hydroxybutyric acid], the protein melting temperature (Biolog plate: PM02A) is 44.2.

`CC(=O)C(C)O` (stereo not given) [3-Hydroxy-2-butanone]: the protein melting temperature (Biolog plate: PM02A) is 43.5.

`O=C(O)C[C@H](O)C(=O)O` [L-Malic acid]: the protein melting temperature (Biolog plate: PM01) stood at 44.3.

Turning to `OC[C@H]1O[C@@H](n2cnc3c(O)nc(O)nc32)[C@H](O)[C@@H]1O` [Xanthosine], where the note is “Biolog plate: PM03B”, the protein melting temperature amounted to 44.3.

`CO[C@H]1O[C@H](CO)[C@@H](O)[C@H](O)[C@@H]1O` [a-Methyl-D-Mannoside]: the protein melting temperature (Biolog plate: PM02A) came to 44.9.

Turning to `O=C1CC[C@@H](C(=O)O)O1` [a-Hydroxyglutaric acid-g-Lactone], the protein melting temperature (Biolog plate: PM01) stood at 45.3.

On to `OC[C@H]1O[C@H](OC[C@H]2O[C@H](OC[C@H]3O[C@H](O[C@]4(CO)O[C@H](CO)[C@@H](O)[C@@H]4O)[C@H](O)[C@@H](O)[C@@H]3O)[C@H](O)[C@@H](O)[C@H]2O)[C@H](O)[C@@H](O)[C@H]1O` [Stachyose], for which the protein melting temperature (Biolog plate: PM02A) is 44.5.

Regarding `C[C@H](N)C(=O)N[C@@H](CCC(N)=O)C(=O)O` [Ala-Gln], the protein melting temperature (Biolog plate: PM03B) is 45.1.

Consider `Nc1ccn([C@@H]2O[C@H](CO)[C@@H](OP(=O)(O)O)[C@H]2O)c(=O)n1` [Cytidine 3`-Monophosphate], for which the protein melting temperature (Biolog plate: PM04A) was 45.4.

Regarding `N[C@H](CCC(=O)O)C(=O)O` [D-Glutamic acid], the protein melting temperature by setting is: (Biolog plate: PM03B) 45; (Biolog plate: PM05) 44.8.

Turning to `Nc1ccc(C(=O)O)cc1` [p-Amino-Benzoic acid], the protein melting temperature (Biolog plate: PM05) amounted to 43.7.

`O=C1O[C@H](CO)[C@@H](O)[C@H]1O` [D-Ribono-1,4-Lactone]: the protein melting temperature (Biolog plate: PM02A) stood at 44.4.

On to `CSC[C@H](N)C(=O)O` [S-Methyl-L-Cysteine], for which, where the note is “Biolog plate: PM04A”, the protein melting temperature came to 43.7.

As for `O=S(=O)(O)SSS(=O)(=O)O` [Tetrathionate], where the note is “Biolog plate: PM04A”, the protein melting temperature stood at 42.7.

Turning to `CC(O)C(C)O` (stereo not given) [2,3-Butanediol], for the setting “Biolog plate: PM02A”, the protein melting temperature stood at 44.2.

Take `O=C(O)CP(=O)(O)O` [Phosphono Acetic acid]: under “Biolog plate: PM04A”, the protein melting temperature was determined as 44.

In the case of `Cc1cc2nc3c(=O)[nH]c(=O)nc-3n(C[C@H](O)[C@H](O)[C@H](O)CO)c2cc1C` [Riboflavin], the protein melting temperature (Biolog plate: PM05) is 43.6.

Turning to `Nc1ncnc2c1ncn2[C@H]1C[C@H](O)[C@@H](CO)O1` [2`-Deoxyadenosine], the protein melting temperature was 43.9 (Biolog plate: PM01) and 44 (Biolog plate: PM05).

Consider `NCCCNCCCCNCCCN` [Spermine], for which the protein melting temperature (Biolog plate: PM05) stood at 43.8.

Turning to `O=C(O)[C@H]1OC(O)[C@H](O)[C@@H](O)[C@H]1O` (stereo partly drawn) [D-Galacturonic acid], the protein melting temperature (Biolog plate: PM01) came out at 44.4.
